Converted amounts (≈) assume the structure as drawn. The source made the active and inactive calls. The calls are words filed in the database; no cut-off is given here.
How the values were obtained:
[1] = system: Chrysosporium keratinophilum; experiment: Antifungal activity against Chrysosporium keratinophilum assessed as growth inhibition after 72 hr by serial broth dilution method; format: functional
Escherichia coli [2] = experiment: Antibacterial activity against Escherichia coli ATCC 25922 assessed as growth inhibition after 24 hr by serial broth dilution method
Candida albicans [3] = experiment: Antifungal activity against Candida albicans MTCC227 assessed as growth inhibition after 72 hr by serial broth dilution method
Staphylococcus aureus [4] = experiment: Antibacterial activity against Staphylococcus aureus ATCC 25923 assessed as growth inhibition after 24 hr by serial broth dilution method
Staphylococcus aureus [5] = experiment: Antibacterial activity against Staphylococcus aureus ATCC 25923 assessed as growth inhibition at 50 mg/mL after 24 hr by agar well diffusion method; conditions: for zone of inhibition at 50000 µg/mL: ATCC 25923, 24 h, read-out: IZ
Candida albicans [6] = experiment: Antifungal activity against Candida albicans MTCC227 assessed as growth inhibition at 50 mg/mL after 72 hr by agar well diffusion method; conditions: for zone of inhibition at 50000 µg/mL: MTCC227, 72 h, read-out: IZ
Aspergillus flavus [7] = experiment: Antifungal activity against Aspergillus flavus assessed as growth inhibition at 50 mg/mL after 72 hr by agar well diffusion method; format: functional; conditions: for zone of inhibition at 50000 µg/mL: read-out: IZ
[8] = Metal chelating activity of the compound assessed as ferrous ion complex formation at 0.5 to 2 mg/mL after 10 min by spectrophotometric analysis relative to EDTA
Pseudomonas aeruginosa [9] = experiment: Antibacterial activity against Pseudomonas aeruginosa ATCC 27853 assessed as growth inhibition after 24 hr by serial broth dilution method; format: functional
Pseudomonas aeruginosa [10] = experiment: Antibacterial activity against Pseudomonas aeruginosa ATCC 27853 assessed as growth inhibition at 50 mg/mL after 24 hr by agar well diffusion method; format: functional; conditions: for zone of inhibition at 50000 µg/mL: ATCC 27853, 24 h, read-out: IZ
Escherichia coli [11] = experiment: Antibacterial activity against Escherichia coli ATCC 25922 assessed as growth inhibition at 50 mg/mL after 24 hr by agar well diffusion method; conditions: for zone of inhibition at 50000 µg/mL: ATCC 25922, 24 h, read-out: IZ
[12] = system: Radical scavenging activity; experiment: Antioxidant activity assessed as DPPH free radical scavenging activity at 100 ug/mL after 10 min UV-Vis spectrophotometric analysis relative to control; format: functional
[13] = system: Chrysosporium keratinophilum; experiment: Antifungal activity against Chrysosporium keratinophilum assessed as growth inhibition at 50 mg/mL after 72 hr by agar well diffusion method; format: functional; conditions: for zone of inhibition at 50000 µg/mL: read-out: IZ
Aspergillus flavus [14] = experiment: Antifungal activity against Aspergillus flavus assessed as growth inhibition after 72 hr by serial broth dilution method; format: functional
Aspergillus flavus [15] = experiment: Antifungal activity against Aspergillus flavus assessed as growth inhibition at 0.5 to 1 mg/mL after 72 hr by agar well diffusion method; format: functional
Candida albicans [16] = experiment: Antifungal activity against Candida albicans NCPF 3179 assessed as growth inhibition at 0.5 to 1 mg/mL after 72 hr by agar well diffusion method; format: functional
[17] = system: Chrysosporium keratinophilum; experiment: Antifungal activity against Chrysosporium keratinophilum assessed as growth inhibition at 0.5 to 1 mg/mL after 72 hr by agar well diffusion method; format: functional
[18] = Metal chelating activity of the compound assessed as ferrous ion complex formation at 0.5 to 2 mg/mL after 10 min by spectrophotometric analysis
Staphylococcus aureus [19] = experiment: Antibacterial activity against Staphylococcus aureus ATCC 25923 assessed as growth inhibition at 0.5 to 1 mg/mL after 24 hr by agar well diffusion method
Escherichia coli [20] = experiment: Antibacterial activity against Escherichia coli ATCC 25922 assessed as growth inhibition at 0.5 to 1 mg/mL after 24 hr by agar well diffusion method
Pseudomonas aeruginosa [21] = experiment: Antibacterial activity against Pseudomonas aeruginosa ATCC 27853 assessed as growth inhibition at 0.5 to 1 mg/mL after 24 hr by agar well diffusion method; format: functional

Row | Structure (SMILES) | MIC [1] | MIC (Escherichia coli [2]; ATCC 25922, 24 h) [µg/mL] | MIC (Candida albicans [3]; MTCC227, 72 h) [µg/mL] | MIC (Staphylococcus aureus [4]; ATCC 25923, 24 h) [µg/mL] | zone of inhibition at 50000 µg/mL (Staphylococcus aureus [5]) [mm] | zone of inhibition at 50000 µg/mL (Candida albicans [6]) [mm] | zone of inhibition at 50000 µg/mL (Aspergillus flavus [7]) [mm] | MIC (Pseudomonas aeruginosa [9]; ATCC 27853, 24 h) [µg/mL] | zone of inhibition at 50000 µg/mL (Pseudomonas aeruginosa [10]) [mm] | zone of inhibition at 50000 µg/mL (Escherichia coli [11]) [mm] | Activity [12] [%] | zone of inhibition at 50000 µg/mL [13] [mm] | MIC (Aspergillus flavus [14]) | further results
1 | O=C(O)c1ccc(NC(CC(=O)c2cc3ccccc3o2)c2ccc(F)cc2)cc1 (centres undefined) | 150 µg/mL (≈ 372 µM) | 300 (≈ 744 µM) | 100 (≈ 248 µM) | 140 (≈ 347 µM) | 6 | 18 | 9 | 140 (≈ 347 µM) | 9 | 5 | 36.2 | 12 | 130 µg/mL (≈ 322 µM) | Activity [8]: Active
2 | OC(Cn1cncn1)(Cn1cncn1)c1ccc(F)cc1F [FLUCONAZOLE] | – | – | – | – | – | – | – | – | – | – | – | – | – | inhibition zone (IZ) (Aspergillus flavus [15]): 10 mm; MIC (Aspergillus flavus [15]; Aspergillus flavus, 72 h): 40 µg/mL (≈ 131 µM); inhibition zone (IZ) (Candida albicans [16]): 20 mm; MIC (Candida albicans [16]; Candida albicans, NCPF 3179, 72 h): 40 µg/mL (≈ 131 µM); inhibition zone (IZ) [17]: 14 mm; MIC ([17]; Chrysosporium keratinophilum, 72 h): 40 µg/mL (≈ 131 µM)
3 | Cc1ccc(C(CC(=O)c2cc3ccccc3oc2=O)Nc2ccc(C(=O)O)cc2)cc1 (centres undefined) | inactive | 500 (≈ 1170 µM) | 500 (≈ 1170 µM) | 500 (≈ 1170 µM) | 3 | 1 | 1 | 500 (≈ 1170 µM) | 3 | 1 | 52.5 | – | 450 µg/mL (≈ 1050 µM) | Activity [8]: Active; growth inhibition (GI) [13]: inactive
4 | O=C(O)c1ccc(NC(CC(=O)c2cc3ccccc3o2)c2ccccc2)cc1 (centres undefined) | 500 µg/mL (≈ 1300 µM) | 500 (≈ 1300 µM) | 400 (≈ 1040 µM) | 450 (≈ 1170 µM) | 3 | 2 | 3 | 500 (≈ 1300 µM) | 3 | 3 | 52.2 | 2 | 500 µg/mL (≈ 1300 µM) | Activity [18]: 69.6%
5 | O=C(O)c1ccc(NC(CC(=O)c2cc3ccccc3oc2=O)c2ccccc2)cc1 (centres undefined) | 200 µg/mL (≈ 484 µM) | 50 (≈ 121 µM) | 150 (≈ 363 µM) | 100 (≈ 242 µM) | 11 | 17 | 11 | 150 (≈ 363 µM) | 12 | 10 | 64.6 | 13 | 250 µg/mL (≈ 605 µM) | Activity [18]: 64.3%
6 | CN[C@@H]1[C@H](O[C@H]2[C@H](O[C@H]3[C@H](O)[C@@H](O)[C@H](N=C(N)N)[C@@H](O)[C@@H]3N=C(N)N)O[C@@H](C)[C@]2(O)C=O)O[C@@H](CO)[C@H](O)[C@H]1O [STREPTOMYCIN] | – | – | – | – | – | – | – | – | – | – | – | – | – | inhibition zone (IZ) (Staphylococcus aureus [19]): 12 mm; MIC (Staphylococcus aureus [19]; Staphylococcus aureus, ATCC 25923, 24 h): 30 µg/mL (≈ 51.6 µM); inhibition zone (IZ) (Escherichia coli [20]): 14 mm; MIC (Escherichia coli [20]; Escherichia coli, ATCC 25922, 24 h): 30 µg/mL (≈ 51.6 µM); inhibition zone (IZ) (Pseudomonas aeruginosa [21]): 13 mm; MIC (Pseudomonas aeruginosa [21]; Pseudomonas aeruginosa, ATCC 27853, 24 h): 30 µg/mL (≈ 51.6 µM)
7 | COc1ccc(C(CC(=O)c2cc3ccccc3o2)Nc2ccccc2)cc1 (centres undefined) | inactive | – | – | – | – | – | – | – | – | – | 27.3 | – | inactive | MIC (Escherichia coli [2]): inactive; MIC (Candida albicans [3]): inactive; MIC (Staphylococcus aureus [4]): inactive; growth inhibition (GI) (Staphylococcus aureus [5]): inactive; growth inhibition (GI) (Candida albicans [6]): inactive; growth inhibition (GI) (Aspergillus flavus [7]): inactive; MIC (Pseudomonas aeruginosa [9]): inactive; growth inhibition (GI) (Pseudomonas aeruginosa [10]): inactive; growth inhibition (GI) (Escherichia coli [11]): inactive; growth inhibition (GI) [13]: inactive
8 | O=C(O)c1ccc(NC(CC(=O)c2cc3ccccc3o2)c2ccc([N+](=O)[O-])cc2)cc1 (centres undefined) | 500 µg/mL (≈ 1160 µM) | 500 (≈ 1160 µM) | 450 (≈ 1050 µM) | 400 (≈ 929 µM) | 3 | 2 | 3 | 500 (≈ 1160 µM) | 3 | 3 | 29.1 | 2 | 550 µg/mL (≈ 1280 µM) | –
9 | CN(C)c1ccc(C(CC(=O)c2cc3ccccc3o2)Nc2ccc(C(=O)O)cc2)cc1 (centres undefined) | 40 µg/mL (≈ 93.4 µM) | 50 (≈ 117 µM) | 50 (≈ 117 µM) | 60 (≈ 140 µM) | 11 | 19 | 10 | 40 (≈ 93.4 µM) | 10 | 13 | 67.2 | 12 | 40 µg/mL (≈ 93.4 µM) | Activity [8]: Active
10 | COc1ccc(C(CC(=O)c2cc3ccccc3o2)Nc2ccc(C(=O)O)cc2)cc1 (centres undefined) | 500 µg/mL (≈ 1200 µM) | 500 (≈ 1200 µM) | – | 500 (≈ 1200 µM) | 1 | – | 1 | 500 (≈ 1200 µM) | 1 | 3 | 14.2 | 2 | 500 µg/mL (≈ 1200 µM) | MIC (Candida albicans [3]): inactive; growth inhibition (GI) (Candida albicans [6]): inactive
11 | CN(C)c1ccc(C(CC(=O)c2cc3ccccc3oc2=O)Nc2ccc(C(=O)O)cc2)cc1 (centres undefined) | inactive | 500 (≈ 1100 µM) | 500 (≈ 1100 µM) | 550 (≈ 1200 µM) | 2 | 1 | 1 | 400 (≈ 876 µM) | 3 | 3 | 12.3 | – | 450 µg/mL (≈ 986 µM) | growth inhibition (GI) [13]: inactive

From ChEMBL document CHEMBL3045073, “Synthesis of -amino carbonyl derivatives of coumarin and benzofuran and evaluation of their biological activity” (Med Chem Res, 2013)
